The nature of data set [1]: pharmacokinetic pilot, continuous infusion in one animal. The note with it: pig, whole blood, intravenous, 0.1 mg/kg/h, time 240 minutes (STOP INFUSION), read-out: Conc in blood 950. It counts as in vivo.
Experiment in data set [2]: as above
The data set is classed as in vivo, pig. On the procedure: One animal served as a pharmacokinetic pilot, with arterial and venous catheters placed in a cut-down in the neck. The remaining 21 animals were used for the randomized study (Figure 1). After intubation and start of mechanical ventilation, a second auricular vein cannula was placed and infusion of either AEPU or placebo according to randomization was started. After 2 h of infusion of AEPU or placebo, an infusion of LPS was started. A bolus of 0.1 mg/kg was administered during 30 min after which the infusion rate was adjusted to 0.01 mg/kg/h. During the time between start of AEPU or placebo and LPS infusion, neck dissection was performed, exposing the v jugularis externa and carotid artery. A pulmonary artery introducer and an arterial cannula were placed in vein and artery respectively, and a pulmonary artery catheter introduced through the introducer and the tip placed in the correct position in the pulmonary artery placement guided by continuous invasive pressure monitoring or, when difficult, assisted by fluoroscopy. All surgical procedures were performed under sterile conditions.
AEPU was synthesized according to Kim et al. ([Kim et al., 2007]), delivered in 60 mg vials and dissolved in 30 mL pure ethanol as a co-solvent, of which either 20 mL was added to 980 mL of sodium chloride 9 mg/mL or 8 mL–392 mL sodium chloride, creating a solution of 0.04 mg/mL AEPU and 2% ethanol. The placebo infusion was prepared by adding either 20 mL of pure ethanol to 980 mL of sodium chloride 9 mg/mL or 8 mL of pure ethanol to 392 mL sodium chloride, creating a 2% ethanol solution. Each animal received an infusion of either 0.1 mg/kg/h AEPU or the corresponding volume of placebo solution.
Infusion of AEPU at 0.1 mg/kg/h produced a progressive rise in blood concentration reaching steady state of approximately 200 nM at 120 min, maintained with only minor variations until the termination of infusion at 255 min. The elimination of AEPU after termination of infusion was rapid, showing complete elimination within 15 min (Figure 2).

Structures are written as SMILES.

As for `CCOCCOCCOCCCCCNC(=O)NC12CC3CC(CC(C3)C1)C2` [Compound 950], the concentration at 240 min in data set [1] was 199 ng/mL. For the same compound, the “time to complete elimination after termination of infusion” value in data set [2] (infusion 0.1 mg/kg/h) is given as at most 15 min. Besides, the concentration at 0 min in data set [2] (pig, whole blood, intravenous, 0.1 mg/kg/h, time 0 minutes, read-out: Conc in blood 950) is 11 ng/mL. Further, the concentration at 5 min in data set [2] (pig, whole blood, intravenous, 0.1 mg/kg/h, time 5 minutes, read-out: Conc in blood 950) stood at 45 ng/mL. Also, the concentration at 35 min in data set [2] (pig, whole blood, intravenous, 0.1 mg/kg/h, time 35 minutes, read-out: Conc in blood 950) amounted to 116 ng/mL. In addition, the concentration at 65 min in data set [2] (pig, whole blood, intravenous, 0.1 mg/kg/h, time 65 minutes, read-out: Conc in blood 950) was determined as 174 ng/mL. For the same compound, the concentration at 121 min in data set [2] (pig, whole blood, intravenous, 0.1 mg/kg/h, time 121 minutes, read-out: Conc in blood 950) worked out at 199 ng/mL. Also, the concentration at 185 min in data set [2] (pig, whole blood, intravenous, 0.1 mg/kg/h, time 185 minutes, read-out: Conc in blood 950) came out at 202 ng/mL. Also, in data set [2] (pig, whole blood, intravenous, 0.1 mg/kg/h, time 255 minutes, read-out: Conc in blood 950), the concentration at 255 min was determined as 224 ng/mL. In data set [2] (pig, whole blood, intravenous, 0.1 mg/kg/h, time 270 minutes, read-out: Conc in blood 950), the concentration at 270 min is 0.189 ng/mL. In addition, the concentration at 285 min in data set [2] (pig, whole blood, intravenous, 0.1 mg/kg/h, time 285 minutes, read-out: Conc in blood 950) was found to be 0.189 ng/mL. For the same compound, the concentration at 300 min in data set [2] (pig, whole blood, intravenous, 0.1 mg/kg/h, time 300 minutes, read-out: Conc in blood 950) amounted to 0.189 ng/mL. The concentration at 330 min in data set [2] (pig, whole blood, intravenous, 0.1 mg/kg/h, time 330 minutes, read-out: Conc in blood 950) was 0.189 ng/mL. Also, the concentration at 120 min in data set [2] (pig, whole blood, intravenous, infusion 0.1 mg/kg/h, reached at 120 min, read-out: steady state blood concentration) is about 200 nM.

Source of the values: PMC12457078, “Inhibition of soluble epoxide hydrolase in endotoxin induced pig lung injury” (Frontiers in Pharmacology, 2025).
